Results taken from PubChem BioAssay AID1347132.
Active and inactive are the calls of the source.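 How the source made its calls: active means over 75% inhibition of phospholipid synthesis and over 75% inhibition of fatty acid synthesis; inactive means the rest.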

System: animal cells, 32Pi/[3H]acetate lipid labeling, 3 h
Experiment: lipid synthesis blockade by radiolabel incorporation – cell-based, 32Pi and [3H]acetate labeling (AID 1347132)

CC(C)(C)c1cc(/C=C(\C#N)C(N)=S)cc(C(C)(C)C)c1O
outcome: inactive
outcome (listed dose 0.1 µM): inactive
outcome (listed dose 0.3 µM): inactive
outcome (listed dose 1 µM): inactive
outcome (listed dose 3 µM): inactive
outcome (listed dose 10 µM): active
